The values that follow come from PMC2719774 (European journal of pharmaceutics and biopharmaceutics : …, 2009).

A short description of series [1]: in vitro. The conditions noted are these: dog, MDCK-MDR1.
Series [2] deals with P-gp. The experiment in a line: in vitro. The conditions noted are these: dog, MDCK-MDR1.
Series [3] deals with T1, CYP1A1 (Homo sapiens, UniProt P04798).
T1 sequence (P04798 1-512): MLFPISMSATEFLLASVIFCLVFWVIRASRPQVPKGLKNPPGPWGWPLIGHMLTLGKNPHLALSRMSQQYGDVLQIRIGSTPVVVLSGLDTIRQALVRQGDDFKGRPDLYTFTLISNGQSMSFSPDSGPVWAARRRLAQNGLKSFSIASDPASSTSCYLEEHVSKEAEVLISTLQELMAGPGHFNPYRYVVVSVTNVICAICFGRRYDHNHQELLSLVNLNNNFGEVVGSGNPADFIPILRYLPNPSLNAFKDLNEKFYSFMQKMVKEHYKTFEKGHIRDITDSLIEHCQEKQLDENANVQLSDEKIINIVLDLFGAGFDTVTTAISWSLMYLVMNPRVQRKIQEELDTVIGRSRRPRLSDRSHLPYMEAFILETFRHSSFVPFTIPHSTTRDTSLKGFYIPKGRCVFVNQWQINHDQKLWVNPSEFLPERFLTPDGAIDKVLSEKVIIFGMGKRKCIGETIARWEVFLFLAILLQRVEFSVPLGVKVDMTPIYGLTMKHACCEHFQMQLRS
The experiment in a line: In vitro metabolism screening with recombinant CYP1A1. Format: in vitro ADME. The conditions noted are these: 1 h, 37°C.

Series [4] addresses recombinant human P-gp (Homo sapiens, UniProt P08183). The experiment in a line: P-gp ATPase activity. The conditions noted are these: for Fold Stimulation of P-gp ATPase activity: relative to non treated.
The conditions of series [5]: humans ref 13; cited from earlier work.
For series [6], the system named is MDCK-MDR1 cell monolayers. The conditions noted are these: 5 μM, 37°C, PBS; UV-HPLC limit of detection 100 ng/ml.
For series [7] the following is noted: PET imaging, female baboons ref 25; cited from earlier work.
Series [8] concerns the target T2, CYP2C18 (Homo sapiens, UniProt P33260).
T2 sequence (P33260 26-490): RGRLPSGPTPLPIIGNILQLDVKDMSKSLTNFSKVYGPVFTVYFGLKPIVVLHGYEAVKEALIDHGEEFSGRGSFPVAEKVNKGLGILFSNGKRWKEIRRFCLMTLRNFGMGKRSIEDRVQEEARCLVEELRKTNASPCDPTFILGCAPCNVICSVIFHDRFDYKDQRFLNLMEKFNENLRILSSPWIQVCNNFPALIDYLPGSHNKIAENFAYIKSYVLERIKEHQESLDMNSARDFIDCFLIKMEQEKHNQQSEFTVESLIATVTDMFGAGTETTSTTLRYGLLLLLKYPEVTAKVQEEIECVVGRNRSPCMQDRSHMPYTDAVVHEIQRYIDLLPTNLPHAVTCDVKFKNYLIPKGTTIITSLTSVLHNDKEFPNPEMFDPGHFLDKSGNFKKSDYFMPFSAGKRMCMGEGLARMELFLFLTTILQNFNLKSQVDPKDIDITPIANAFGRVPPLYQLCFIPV
The experiment in a line: In vitro metabolism screening with recombinant CYP2C18. The conditions noted are these: 1 h, 37°C. Type of series: in vitro ADME.

Series [9] has as its target CYP2D6 (Homo sapiens, UniProt P10635). The experiment in a line: In vitro metabolism screening with recombinant CYP2D6. Type of series: in vitro ADME. To be noted: 1 h, 37°C.
The target in series [10] is CYP2E1 (Homo sapiens, UniProt P05181). The experiment in a line: In vitro metabolism screening with recombinant CYP2E1. Format: in vitro ADME. To be noted: 1 h, 37°C.
The test system of series [11] is P-gp (MDR1). The experiment in a line: in vitro. To be noted: dog, MDCK-MDR1.
The nature of series [12]: Single-dose pharmacokinetics and brain distribution in rats. Format: in vivo, male Sprague Dawley rats. The conditions noted are these: rat; for t1/2 / half-life: 10 mg/kg i.p.
Series [13] concerns the target T3, UGT2B7 (Homo sapiens, UniProt P16662).
T3 sequence (P16662 24-529): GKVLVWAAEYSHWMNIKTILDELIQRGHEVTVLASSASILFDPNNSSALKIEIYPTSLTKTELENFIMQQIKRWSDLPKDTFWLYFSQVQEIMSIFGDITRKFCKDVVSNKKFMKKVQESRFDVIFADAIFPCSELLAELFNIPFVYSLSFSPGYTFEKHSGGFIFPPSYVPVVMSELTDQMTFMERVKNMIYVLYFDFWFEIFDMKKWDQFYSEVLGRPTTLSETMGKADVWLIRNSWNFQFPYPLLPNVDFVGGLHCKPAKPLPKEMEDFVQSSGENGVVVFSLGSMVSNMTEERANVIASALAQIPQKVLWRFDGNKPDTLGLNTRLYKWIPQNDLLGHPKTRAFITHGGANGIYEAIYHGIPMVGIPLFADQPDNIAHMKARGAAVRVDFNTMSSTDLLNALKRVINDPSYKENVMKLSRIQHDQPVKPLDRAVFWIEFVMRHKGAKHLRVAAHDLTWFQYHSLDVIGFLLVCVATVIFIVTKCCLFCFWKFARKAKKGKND
The experiment in a line: In vitro metabolism screening with UGT2B7 Supersomes. Type of series: in vitro ADME. To be noted: 37°C.

For series [14] the following is noted: rhesus monkeys, plasma, single dose ref 24; cited from earlier work.
Where [15] appears, read: male, Sprague Dawley, brain, ip, 10 mg/kg.
Where [16] appears, read: male, Sprague Dawley, plasma, ip, 10 mg/kg.

Values joined by “and” are separate entries in the source; they are usually repeats but may differ in a detail not shown here. Equal entries are not always repeated. Bounds are passed on as bounds.

CYP2D6, sequence (P10635 whole entry): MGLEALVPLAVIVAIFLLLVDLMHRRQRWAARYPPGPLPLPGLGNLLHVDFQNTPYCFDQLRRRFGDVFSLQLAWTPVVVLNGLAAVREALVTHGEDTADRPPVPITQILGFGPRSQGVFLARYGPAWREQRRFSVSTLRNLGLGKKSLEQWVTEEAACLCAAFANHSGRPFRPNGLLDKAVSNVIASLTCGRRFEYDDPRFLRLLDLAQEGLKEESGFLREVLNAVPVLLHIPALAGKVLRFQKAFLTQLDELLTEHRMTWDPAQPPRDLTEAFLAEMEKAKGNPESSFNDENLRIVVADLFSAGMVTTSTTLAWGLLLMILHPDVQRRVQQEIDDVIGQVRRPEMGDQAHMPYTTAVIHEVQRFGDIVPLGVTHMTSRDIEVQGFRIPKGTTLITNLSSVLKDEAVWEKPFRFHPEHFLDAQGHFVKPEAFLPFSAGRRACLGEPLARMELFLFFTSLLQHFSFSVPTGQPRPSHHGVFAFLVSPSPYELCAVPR
recombinant human P-gp, sequence (P08183 whole entry): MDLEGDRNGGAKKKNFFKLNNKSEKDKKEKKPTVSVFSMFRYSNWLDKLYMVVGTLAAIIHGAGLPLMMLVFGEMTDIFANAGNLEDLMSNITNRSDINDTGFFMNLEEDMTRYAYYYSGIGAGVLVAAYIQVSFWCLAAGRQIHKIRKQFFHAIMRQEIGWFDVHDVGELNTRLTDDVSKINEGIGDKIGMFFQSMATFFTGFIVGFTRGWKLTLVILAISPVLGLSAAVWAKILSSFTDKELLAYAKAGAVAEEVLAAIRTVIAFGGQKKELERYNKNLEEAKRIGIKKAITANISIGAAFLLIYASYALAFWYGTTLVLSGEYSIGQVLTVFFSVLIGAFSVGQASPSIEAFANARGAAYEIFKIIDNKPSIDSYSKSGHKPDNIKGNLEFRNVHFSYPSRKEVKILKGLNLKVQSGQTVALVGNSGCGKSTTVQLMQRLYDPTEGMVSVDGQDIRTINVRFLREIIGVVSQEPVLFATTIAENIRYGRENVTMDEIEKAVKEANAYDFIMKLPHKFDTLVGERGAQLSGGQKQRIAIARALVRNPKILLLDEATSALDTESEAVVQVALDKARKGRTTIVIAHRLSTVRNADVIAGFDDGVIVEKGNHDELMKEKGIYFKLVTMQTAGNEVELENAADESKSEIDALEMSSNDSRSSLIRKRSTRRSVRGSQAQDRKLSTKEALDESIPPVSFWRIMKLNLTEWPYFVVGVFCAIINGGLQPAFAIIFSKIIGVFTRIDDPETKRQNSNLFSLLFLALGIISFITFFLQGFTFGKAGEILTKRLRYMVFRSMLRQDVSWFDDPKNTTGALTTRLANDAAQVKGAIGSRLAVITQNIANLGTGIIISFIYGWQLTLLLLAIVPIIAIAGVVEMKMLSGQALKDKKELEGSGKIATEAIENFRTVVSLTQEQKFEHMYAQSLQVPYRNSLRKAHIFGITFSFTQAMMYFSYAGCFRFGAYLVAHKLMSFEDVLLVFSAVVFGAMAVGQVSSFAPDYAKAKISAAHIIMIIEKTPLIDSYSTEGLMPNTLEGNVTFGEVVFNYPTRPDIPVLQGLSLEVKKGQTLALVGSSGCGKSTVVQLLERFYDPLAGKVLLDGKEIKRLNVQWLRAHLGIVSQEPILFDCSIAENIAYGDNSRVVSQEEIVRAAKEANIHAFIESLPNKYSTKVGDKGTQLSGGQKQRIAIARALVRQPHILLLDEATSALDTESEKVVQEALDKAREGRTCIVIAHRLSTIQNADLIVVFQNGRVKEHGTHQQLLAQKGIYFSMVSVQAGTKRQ
CYP2E1, sequence (P05181 whole entry): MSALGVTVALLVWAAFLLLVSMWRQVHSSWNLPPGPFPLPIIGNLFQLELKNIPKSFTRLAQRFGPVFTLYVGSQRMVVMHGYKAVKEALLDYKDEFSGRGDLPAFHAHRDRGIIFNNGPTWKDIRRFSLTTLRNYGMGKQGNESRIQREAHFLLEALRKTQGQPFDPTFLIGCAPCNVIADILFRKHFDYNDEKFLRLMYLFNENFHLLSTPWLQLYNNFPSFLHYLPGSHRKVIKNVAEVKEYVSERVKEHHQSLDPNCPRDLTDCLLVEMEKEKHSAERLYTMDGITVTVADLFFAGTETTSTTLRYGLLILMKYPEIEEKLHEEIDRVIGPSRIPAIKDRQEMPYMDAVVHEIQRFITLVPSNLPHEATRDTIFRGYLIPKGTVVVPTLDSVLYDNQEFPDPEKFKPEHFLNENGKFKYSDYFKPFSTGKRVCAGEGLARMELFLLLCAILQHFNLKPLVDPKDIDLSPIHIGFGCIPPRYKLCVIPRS

What is called Papp is a coefficient for how fast a substance crosses the barrier. Turning to `OC[C@@H](O)[C@@H](O)[C@H](O)[C@H](O)CO` [Mannitol, mannitol], in series [1], the Papp is 3.23 ×10⁻⁶ cm/s.
A word on the efflux ratio: it is the permeability from basolateral to apical divided by that in the opposite direction, in the common usage. On to `CC(=O)O[C@H]1C(=O)[C@@]2(C)[C@H]([C@H](OC(=O)c3ccccc3)[C@]3(O)C[C@H](OC(=O)[C@H](O)[C@@H](NC(=O)c4ccccc4)c4ccccc4)C(C)=C1C3(C)C)[C@]1(OC(C)=O)CO[C@@H]1C[C@@H]2O` [paclitaxel], for which the efflux ratio in [2] turned out to be 15.2.
Broadly, the Papp B→A is how fast a substance crosses the layer from the basolateral side. As a reminder, the Kp is tissue or fluid exposure divided by exposure in the circulation. Usually AUC(0-inf) stands for the area under the concentration-time curve extrapolated to infinity. Lower therefore signals less exposure. A word on the AUC(0-t): it is the area under the concentration-time curve up to a stated or last time point. A lower AUC(0-t) goes with low exposure. In general, Cmax refers to the maximum level reached in the sampled fluid or tissue. The term Tmax denotes the time from dosing to the highest level. Broadly, the half-life is how long it takes for the measured level to halve. Low readings indicate fast loss, high ones slow loss. The CL/F is the apparent clearance, not corrected for the fraction that reaches the circulation. What is called Vd/F is the volume of distribution divided by bioavailability. Turning to `COC(=O)[C@@H]1C[C@H](OC(C)=O)C(=O)[C@H]2[C@@]1(C)CC[C@H]1C(=O)O[C@H](c3ccoc3)C[C@]21C` [Salvinorin A], the “% reduction of initial concentration” value was 31.1±1.20% and 31.1(±1.20) % in [3] (5 μM); 5.3(±2) % in [3] (50 μM); 20.6(±1.00) % in [8] (5 μM); 6(±1.2) % in series [8] (50 μM); 14.7±0.80% and 14.7(± 0.80) % in series [9] (5 μM); 10(± 1.2) % in series [9] (50 μM). For the same molecule, the “% reduction of initial concentration” value is listed as 22(±0.80) % in series [10] (5 μM); 6.4(±1.6) % in series [10] (50 μM); 51(± 4.00) % in series [13] (5 μM, two hour incubation); 18.1(± 5.20) % in series [13] (10 μM, 1 h); 7(±5.60) % in series [13] (50 μM, 1 h). The “rate of ATP consumption (P-gp ATPase activity)” value in [4] (2.5 μM) was 50.94 ± 17.87 pmol/μg P-gp/min; in [4] (5 μM) it was 47.48 ± 3.36 pmol/μg P-gp/min and 47.78 ± 3.36 ^a pmol/μg P-gp/min; in [4] (10 μM), 41.14 ± 5.86 pmol/μg P-gp/min and 41.14 ± 5.86 ^b pmol/μg P-gp/min; in series [4] (25 μM), 31.08 ± 21.18 pmol/μg P-gp/min. Moreover, the “Fold Stimulation of P-gp ATPase activity” value in series [4] (2.5 μM) amounted to 2.39; in [4] (5 μM), 2.24; in [4] (10 μM), 1.93; in [4] (25 μM), 1.46. Besides, in series [5], the “duration of hallucinogenic experience” value was at most 15 min. Moreover, the “time to appearance of hallucinogenic experience” value in series [5] is “less than 1 min”. Further, the “absorptive transport (Papp A→B)” value in series [6] was “not detected”. Moreover, the “time to peak brain uptake after dosing” value in series [7] is recorded as 40 s. The molecule further showed a basolateral-to-apical permeability (Papp B→A) at 5 μM in series [11] of 40.7 ×10⁻⁶ cm/s. In addition, the t1/2 in series [12] (brain) was 36.1 min; in series [12] (plasma), 75.4 min. In series [12] (male, Sprague Dawley, brain and plasma, ip, 10 mg/kg), this molecule registered a Kp of 0.05. In addition, the figures for the AUC(0-inf) in [12] (setting [15]) and in [12] (setting [16]) were 20.6 ng·h/mL and 410 ng·h/mL, respectively. The figures for the exposure AUC(0-t) in series [12] (setting [15]) and in series [12] (setting [16]) were 13 ng·h/mL and 348 ng·h/mL, respectively. Also, the Cmax in series [12] (setting [15]) was 23.9 ng/mL; in series [12] (setting [16]), 345 ng/mL. Moreover, the Tmax is 10 min in series [12] (setting [15]); 10 to 15 min in series [12] (male, Sprague Dawley, plasma and brain, ip, 10 mg/kg); 15 min in series [12] (setting [16]). In addition, the half-life in series [12] (male, Sprague Dawley, brain, ip, 10 mg/kg, t1/2, brain) was found to be 36 min; in series [12] (male, Sprague Dawley, plasma, ip, 10 mg/kg, t1/2, plasma) it was 75 min. In series [12] (setting [16]), the apparent clearance CL/F is 433 mL/min/kg. Moreover, the k el was 0.000153 s⁻¹ in [12] (setting [16]) and 3.19e-05 s⁻¹ in series [12] (male, Sprague-Dawley, brain, ip, 10 mg/kg). In series [12] (male, Sprague-Dawley, plasma, ip, 10 mg/kg), this molecule came in with a Vd/F of 47.1 L/kg. The elimination half-life in [14] is 56.6 ± 24.8 min.
